Results as given in patent US20250171434A1, “SEC61 INHIBITORS AND USE THEREOF” (KEZAR LIFE SCIENCES, INC., priority 2022, published 2025).
Read-outs that look alike come from different tables or passages of the source.

Assays:
[1] = tested on: PD1-ss+10aa/Gaussia Luciferase; assay: Dox-Induced PD1-ss-Gluc Assay; format: cell-based
Outline: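 Gaussia luciferase fused downstream of the PD1 signal peptide plus 10 residues was expressed on doxycycline induction in stably transfected Flp-In 293 T-REx cells. Compounds were added with doxycycline and incubated at 37 °C, 5% CO2.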

[2] = tested on: IL-2-FL/Gaussia Luciferase; assay: Dox Inducible IL2-FL-Gluc Assay; format: cell-based
Outline: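 Stable Flp-In 293 T-REx line, Tet-regulated IL-2 (aa 1-153)–Gaussia luciferase fusion; hygromycin/blasticidin selected. Plated day -1; compound + doxycycline added next day; 37° C, 5% CO2.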

[3] = tested on: HER3-ss+4aa/Gaussia Luciferase; assay: Dox-Inducible Her3-ss-Gluc Assay; format: cell-based
Source text: Flp-In 293 T-REx™ cells were transfected with pcDNA™5/FRT/TO plasmid inserted with cDNA encoding Gaussia Luciferase fused to the 3′ end of cDNA encoding HER3 signal sequence plus 4 amino acids (N-[…]-C) (SEQ ID NO: 2). Transfected cells were selected for resistance to the selectable markers Hygromycin and Blasticidin to create a stable cell line that contained the HER3-ss+4aa/Gaussia Luciferase cDNA insert whose expression was regulated under the T-REx™ system. The day before assay, cells were trypsinized and plated in 384-well tissue culture plates. The next day, compound dilutions in DMSO/media containing doxycycline were added to the wells and incubated at 37° C., 5% CO2.
(§1) For chemical structures that include one or more stereoisomers, but are illustrated without indicating stereochemistry, the assay data refers to a mixture of stereoisomers.

[4] = tested on: TNFα-FL/Gaussia Luciferase; assay: Dox Induced TNFα-FL-Gluc Assay; format: cell-based
Source text: Flp-In 293 T-REx™ cells were transfected with pcDNA™5/FRT/TO plasmid inserted with cDNA encoding Gaussia Luciferase fused to the 3′ end of cDNA encoding full length TNFα (amino acids 1-233). Transfected cells were selected for resistance to the selectable markers Hygromycin and Blasticidin to create a stable cell line that contained the TNFα-FL/Gaussia Luciferase cDNA insert whose expression was regulated under the T-REx™ system. The day before assay, cells were trypsinized and plated in 384-well tissue culture plates. The next day, compound dilutions in DMSO/media containing doxycycline were added to the wells and incubated at 37° C., 5% CO2.
as §1

[5] = tested on: multiple myeloma cell line NCI-H929; assay: H929 Cell Viability Assay; format: cell-based, human; conditions: Homo sapiens
Outline: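 Cells in RPMI 1640/10% FBS; compound dilutions in DMSO/media; 48 h, 37° C, 5% CO2; CellTiter-Glo luciferase readout for viability.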

[6] = tested on: multiple myeloma cell line U266B1; assay: U266 Cell Viability Assay; format: cell-based; conditions: Homo sapiens
Outline: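 Luminescent ATP read-out (CellTiter-Glo) after 48 h compound exposure at 37° C., 5% CO2; cells maintained in RPMI 1640/10% FBS/2 mM glutamine/pen-strep, compounds diluted in DMSO/media.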

[7] = Liver Microsome Stability Assay, mouse; format: in vitro ADME; conditions: mouse liver microsomes 1.0 mg/mL, 1.0 uM compound, 37° C., 1 mM NADPH
Outline: (§2)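 Each species' liver microsomes at 1.0 mg/mL received 1.0 uM compound in 0.1 M potassium phosphate with 0.4% DMSO. Reactions proceeded at 37° C in the presence or absence of 1 mM NADPH. Quenching followed at 0 and 30 minutes.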

[8] = Liver Microsome Stability Assay, rat; format: in vitro ADME; conditions: rat liver microsomes 1.0 mg/mL, 1.0 uM compound, 37° C., 1 mM NADPH
Outline: as §2

[9] = Liver Microsome Stability Assay, monkey; format: in vitro ADME; conditions: monkey liver microsomes 1.0 mg/mL, 1.0 uM compound, 37° C., 1 mM NADPH
Outline: as §2

[10] = Liver Microsome Stability Assay, human; format: in vitro ADME; conditions: human liver microsomes 1.0 mg/mL, 1.0 uM compound, 37° C., 1 mM NADPH
Outline: as §2

[11] = Flp-In 293 T-REx cells, 24 hours with doxycycline; Table 3; read-out: 24 hr Dox Inducible PD1ssGluc 293FRT/TO: Mean IC50
[12] = Flp-In 293 T-REx cells, 24 hours with doxycycline; Table 3; read-out: 24 hr Dox Inducible IL2FLGluc 293FRT/TO: Mean IC50
[13] = ratio of IC50s IL2/PD1; Table 3
[14] = Flp-In 293 T-REx cells, 24 hours with doxycycline; Table 3; read-out: 24 hr Dox Inducible Her3(ss + 4)Gluc 293FRT/TO: Mean IC50
[15] = Flp-In 293 T-REx cells, 24 hours with doxycycline; Table 3; read-out: 24 hr Dox Inducible TNFaFLGluc 293FRT/TO: Mean IC50
[16] = ratio of IC50s TNF/PD1; Table 3
[17] = NCI-H929 cells, 48 hours, Celltiter-Glo, read-out: 48 hr H929 Viability Celltiter-Glo: Mean EC50
[18] = U-266, U266B1 cells, 48 hours, Celltiter-Glo, read-out: 48 hr U266 Viability Celltiter-Glo: Mean EC50

SMILES | IC50 [1, 11] | IC50 [2, 12] | IC50 [3, 14] | IC50 [4, 15] | EC50 [5, 17] | EC50 [6, 18] | Liver Microsome Stability (Multiple Species): Mouse - % Remaining after 30 min w/ NADPH (%) [7] | Liver Microsome Stability (Multiple Species): Rat - % Remaining after 30 min w/ NADPH (%) [8] | Liver Microsome Stability (Multiple Species): Monkey - % Remaining after 30 min w/ NADPH (%) [9] | Liver Microsome Stability (Multiple Species): Human - % Remaining after 30 min w/ NADPH (%) [10] | 24 hr Dox Inducible IL2FLGluc 293FRT/TO: IL2/PD1 [2, 13] | 24 hr Dox Inducible TNFaFLGluc 293FRT/TO: TNF/PD1 [4, 16] | IC50 ([1]; read-out: 24 hr Dox Inducible PD1ssGluc 293FRT/TO: Mean IC50; Flp-In 293 T-REx cells, 24 hours with doxycycline; Table 3) | IC50 ([2]; read-out: 24 hr Dox Inducible IL2FLGluc 293FRT/TO: Mean IC50; Flp-In 293 T-REx cells, 24 hours with doxycycline; Table 3) | IC50 ([3]; read-out: 24 hr Dox Inducible Her3(ss + 4)Gluc 293FRT/TO: Mean IC50; Flp-In 293 T-REx cells, 24 hours with doxycycline; Table 3) | IC50 ([4]; read-out: 24 hr Dox Inducible TNFaFLGluc 293FRT/TO: Mean IC50; Flp-In 293 T-REx cells, 24 hours with doxycycline; Table 3) | EC50 ([5]; NCI-H929, 48 h, read-out: 48 hr H929 Viability Celltiter-Glo: Mean EC50 (nM)) | EC50 ([6]; U-266, 48 h, read-out: 48 hr U266 Viability Celltiter-Glo: Mean EC50 (nM))
Cc1sc(NC(=O)c2cccn2Cc2ccnc(F)c2)nc1/C=C/c1cn(C(C)C)cn1 [Compound B23, (E)-1-((2-fluoropyridin-4-yl)methyl)-N-(4-(2-(1-isopropyl-1H-imidazol-4-yl)vinyl)-5-methylthiazol-2-yl)-1H-pyrrole-2-carboxamide] |  |  |  |  |  |  | 16% | 19% | 1% | <1% | >420 | >422 | 0.059 µM | > 25 µM | 3.39 µM | > 25 µM | > 25000 nM | > 25000 nM
C/C(=C\c1cn(C(C)C)cn1)c1csc(NC(=O)c2cccn2Cc2ccnc(F)c2)n1 [Compound B24, (E)-1-((2-fluoropyridin-4-yl)methyl)-N-(4-(1-(1-isopropyl-1H-imidazol-4-yl)prop-1-en-2-yl)thiazol-2-yl)-1H-pyrrole-2-carboxamide] | 0.54 µM | > 25 µM | > 25 µM | > 25 µM | 13600 nM | 15300 nM | 3% | 1% | <1% | 1% | >46 | >46 |  |  |  |  |  | 
C/C(=C\c1cn(C(C)C)cn1)c1csc(NC(=O)c2cccn2Cc2ccncc2)n1 [Compound B25, (E)-N-(4-(1-(1-isopropyl-1H-imidazol-4-yl)prop-1-en-2-yl)thiazol-2-yl)-1-(pyridin-4-ylmethyl)-1H-pyrrole-2-carboxamide] | 0.404 µM | > 25 µM | > 25 µM | > 25 µM | 13700 nM | 17300 nM | 0.05% | <1% | <1% | <1% | >62 | >61 |  |  |  |  |  | 

Continued by falling IC50 [1, 11], values first:

IC50 [1, 11] | IC50 [2, 12] | IC50 [3, 14] | IC50 [4, 15] | EC50 [5, 17] | EC50 [6, 18] | Liver Microsome Stability (Multiple Species): Mouse - % Remaining after 30 min w/ NADPH (%) [7] | Liver Microsome Stability (Multiple Species): Rat - % Remaining after 30 min w/ NADPH (%) [8] | Liver Microsome Stability (Multiple Species): Monkey - % Remaining after 30 min w/ NADPH (%) [9] | Liver Microsome Stability (Multiple Species): Human - % Remaining after 30 min w/ NADPH (%) [10] | SMILES | 24 hr Dox Inducible IL2FLGluc 293FRT/TO: IL2/PD1 [2, 13] | 24 hr Dox Inducible TNFaFLGluc 293FRT/TO: TNF/PD1 [4, 16] | IC50 ([1]; read-out: 24 hr Dox Inducible PD1ssGluc 293FRT/TO: Mean IC50; Flp-In 293 T-REx cells, 24 hours with doxycycline; Table 3) | IC50 ([2]; read-out: 24 hr Dox Inducible IL2FLGluc 293FRT/TO: Mean IC50; Flp-In 293 T-REx cells, 24 hours with doxycycline; Table 3) | IC50 ([3]; read-out: 24 hr Dox Inducible Her3(ss + 4)Gluc 293FRT/TO: Mean IC50; Flp-In 293 T-REx cells, 24 hours with doxycycline; Table 3) | IC50 ([4]; read-out: 24 hr Dox Inducible TNFaFLGluc 293FRT/TO: Mean IC50; Flp-In 293 T-REx cells, 24 hours with doxycycline; Table 3) | EC50 ([5]; NCI-H929, 48 h, read-out: 48 hr H929 Viability Celltiter-Glo: Mean EC50 (nM)) | EC50 ([6]; U-266, 48 h, read-out: 48 hr U266 Viability Celltiter-Glo: Mean EC50 (nM))
0.161 µM | 0.748 µM | 0.298 µM | 3.97 µM | 6260 nM | 20000 nM | 6% | 4% | 1% | 6% | O=C(Nc1nc(/C=C/[C@H]2CC[C@@H](C(F)(F)F)CC2)cs1)c1cccn1Cc1ccncc1 [Compound B9, 1-(pyridin-4-ylmethyl)-N-(4-((E)-2-((1s,4s)-4-(trifluoromethyl)cyclohexyl)vinyl)thiazol-2-yl)-1H-pyrrole-2-carboxamide] | 5 | 25 |  |  |  |  |  | 
0.117 µM | 0.737 µM | 0.332 µM | 3.82 µM | 7130 nM | 19700 nM | 31% | 10% | <1% | 59% | O=C(Nc1nc(/C=C/C2CCCC2)cs1)c1cccn1Cc1ccnc(F)c1 [Compound B26, (E)-N-(4-(2-cyclopentylvinyl)thiazol-2-yl)-1-((2-fluoropyridin-4-yl)methyl)-1H-pyrrole-2-carboxamide] | 6 | 33 |  |  |  |  |  | 
0.041 µM | 0.249 µM | 0.086 µM | 1.01 µM | 5810 nM | > 25000 nM | 49% | 5% | 11% | 38% | O=C(Nc1nc(/C=C/[C@H]2CC[C@H](C(F)(F)F)CC2)cs1)c1cccn1Cc1ccncc1 [Compound B10, 1-(pyridin-4-ylmethyl)-N-(4-((E)-2-((1r,4r)-4-(trifluoromethyl)cyclohexyl)vinyl)thiazol-2-yl)-1H-pyrrole-2-carboxamide] | 6 | 25 |  |  |  |  |  | 
0.024 µM | 1.68 µM | 1.18 µM | 11.2 µM | > 25000 nM | > 25000 nM | 11% | 1% | 4% | 22% | O=C(Nc1nc(/C=C/c2ccc(Cl)cn2)cs1)c1cccn1Cc1ccnc(F)c1 [Compound B8, (E)-N-(4-(2-(5-chloropyridin-2-yl)vinyl)thiazol-2-yl)-1-((2-fluoropyridin-4-yl)methyl)-1H-pyrrole-2-carboxamide] | 69 | 462 |  |  |  |  |  | 
